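Grown in 96-well plates, cells were treated for 48 hours with each compound at five concentrations. Insufficient inhibition: endpoint recorded as highest concentration tested. TGI: concentration producing complete growth inhibition.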
Tests used:
Assay in all cases: DTP human tumour cell line panel, 48 h
K-562 leukemia = system: K-562 leukemia
OVCAR-4 ovarian = system: OVCAR-4 ovarian
SK-OV-3 ovarian = system: SK-OV-3 ovarian
SNB-19 CNS = system: SNB-19 CNS
A498 renal = system: A498 renal
IGROV1 ovarian = system: IGROV1 ovarian
OVCAR-8 ovarian = system: OVCAR-8 ovarian
UACC-257 melanoma = system: UACC-257 melanoma
HCC-2998 colon = system: HCC-2998 colon
HL-60(TB) leukemia = system: HL-60(TB) leukemia
SF-539 CNS = system: SF-539 CNS
RXF 393 renal = system: RXF 393 renal
SR leukemia = system: SR leukemia
SF-268 CNS = system: SF-268 CNS
NCI-H460 lung = system: NCI-H460 lung
M14 melanoma = system: M14 melanoma
SF-295 CNS = system: SF-295 CNS
NCI-H23 lung = system: NCI-H23 lung
786-0 renal = system: 786-0 renal
HCT-116 colon = system: HCT-116 colon
HCT-15 colon = system: HCT-15 colon
CCRF-CEM leukemia = system: CCRF-CEM leukemia
U251 CNS = system: U251 CNS
TK-10 renal = system: TK-10 renal
OVCAR-3 ovarian = system: OVCAR-3 ovarian
MDA-MB-231 breast = system: MDA-MB-231 breast
MCF7 breast = system: MCF7 breast
SNB-75 CNS = system: SNB-75 CNS
NCI-H522 lung = system: NCI-H522 lung
SK-MEL-5 melanoma = system: SK-MEL-5 melanoma
ACHN renal = system: ACHN renal
HS 578T breast = system: HS 578T breast
EKVX NSCLC = system: EKVX NSCLC
COLO 205 colon = system: COLO 205 colon
MOLT-4 leukemia = system: MOLT-4 leukemia
A549 NSCLC = system: A549 NSCLC
NCI-H226 lung = system: NCI-H226 lung
MDA-MB-435 = system: MDA-MB-435
CAKI-1 renal = system: CAKI-1 renal
UO-31 renal = system: UO-31 renal
DU-145 prostate = system: DU-145 prostate
LOX IMVI melanoma = system: LOX IMVI melanoma
SN12C renal = system: SN12C renal
SK-MEL-28 melanoma = system: SK-MEL-28 melanoma
NCI/ADR-RES ovarian = system: NCI/ADR-RES ovarian
UACC-62 melanoma = system: UACC-62 melanoma
HOP-62 NSCLC = system: HOP-62 NSCLC
SW-620 colon = system: SW-620 colon
KM12 colon = system: KM12 colon
T-47D breast = system: T-47D breast
HT29 colon = system: HT29 colon
PC-3 prostate = system: PC-3 prostate
SK-MEL-2 melanoma = system: SK-MEL-2 melanoma
RPMI-8226 leukemia = system: RPMI-8226 leukemia
MALME-3M melanoma = system: MALME-3M melanoma
OVCAR-5 ovarian = system: OVCAR-5 ovarian

COc1ccc2cc1Oc1ccc(cc1)C[C@@H]1c3cc(c(OC)cc3CCN1C)Oc1c(OC)c(OC)cc3c1[C@H](C2)N(C)CC3
TGI (K-562 leukemia): 23 µM
TGI (OVCAR-4 ovarian): 55.6 µM
TGI (SK-OV-3 ovarian): > 100 µM
TGI (SNB-19 CNS): 50 µM
TGI (A498 renal): 42.5 µM
TGI (IGROV1 ovarian): 72.9 µM
TGI (OVCAR-8 ovarian): 35.6 µM
TGI (UACC-257 melanoma): 28.9 µM
TGI (HCC-2998 colon): 25.8 µM
TGI (HL-60(TB) leukemia): 30.8 µM
TGI (SF-539 CNS): 23.6 µM
TGI (RXF 393 renal): 13.7 µM
TGI (SR leukemia): 9.91 µM
TGI (SF-268 CNS): 60.8 µM
TGI (NCI-H460 lung): 29.7 µM
TGI (M14 melanoma): 37.1 µM
TGI (SF-295 CNS): 34.2 µM
TGI (NCI-H23 lung): 34.1 µM
TGI (786-0 renal): 89.6 µM
TGI (HCT-116 colon): > 100 µM
TGI (HCT-15 colon): 25.1 µM
TGI (CCRF-CEM leukemia): 51.8 µM
TGI (U251 CNS): > 100 µM
TGI (TK-10 renal): 39.5 µM
TGI (OVCAR-3 ovarian): > 100 µM
TGI (MDA-MB-231 breast): 29.9 µM
TGI (MCF7 breast): 31 µM
TGI (SNB-75 CNS): 27.3 µM
TGI (NCI-H522 lung): 33.4 µM
TGI (SK-MEL-5 melanoma): 25.1 µM
TGI (ACHN renal): 28.5 µM
TGI (HS 578T breast): 42.3 µM

O=C(CC(C(=O)c1cccs1)c1ccsc1)c1ccc(Cl)s1 (centres undefined)
TGI (K-562 leukemia): > 100 µM
TGI (OVCAR-4 ovarian): > 100 µM
TGI (EKVX NSCLC): > 100 µM
TGI (SK-OV-3 ovarian): > 100 µM
TGI (COLO 205 colon): > 100 µM
TGI (MOLT-4 leukemia): > 100 µM
TGI (SNB-19 CNS): > 100 µM
TGI (A498 renal): > 100 µM
TGI (A549 NSCLC): > 100 µM
TGI (IGROV1 ovarian): > 100 µM
TGI (OVCAR-8 ovarian): > 100 µM
TGI (UACC-257 melanoma): > 100 µM
TGI (NCI-H226 lung): > 100 µM
TGI (HCC-2998 colon): > 100 µM
TGI (HL-60(TB) leukemia): > 100 µM
TGI (SF-539 CNS): > 100 µM
TGI (SR leukemia): > 100 µM
TGI (SF-268 CNS): > 100 µM
TGI (NCI-H460 lung): > 100 µM
TGI (M14 melanoma): > 100 µM
TGI (MDA-MB-435): > 100 µM
TGI (CAKI-1 renal): > 100 µM
TGI (NCI-H23 lung): > 100 µM
TGI (UO-31 renal): > 100 µM
TGI (DU-145 prostate): > 100 µM
TGI (LOX IMVI melanoma): > 100 µM
TGI (SN12C renal): > 100 µM
TGI (786-0 renal): > 100 µM
TGI (SK-MEL-28 melanoma): > 100 µM
TGI (HCT-116 colon): > 100 µM
TGI (NCI/ADR-RES ovarian): > 100 µM
TGI (UACC-62 melanoma): > 100 µM
TGI (HOP-62 NSCLC): > 100 µM
TGI (HCT-15 colon): > 100 µM
TGI (SW-620 colon): > 100 µM
TGI (KM12 colon): > 100 µM
TGI (CCRF-CEM leukemia): > 100 µM
TGI (T-47D breast): > 100 µM
TGI (HT29 colon): > 100 µM
TGI (U251 CNS): > 100 µM
TGI (TK-10 renal): > 100 µM
TGI (PC-3 prostate): > 100 µM
TGI (SK-MEL-2 melanoma): > 100 µM
TGI (MDA-MB-231 breast): > 100 µM
TGI (MCF7 breast): > 100 µM
TGI (SNB-75 CNS): > 100 µM
TGI (SK-MEL-5 melanoma): > 100 µM
TGI (ACHN renal): > 100 µM
TGI (RPMI-8226 leukemia): > 100 µM
TGI (MALME-3M melanoma): > 100 µM
TGI (HS 578T breast): > 100 µM
TGI (OVCAR-5 ovarian): > 100 µM

— PubChem BioAssay (NCI)
